# Results published in the supplement of paper PMC10307832.
# Experiments:
# Assay in all cases: relative viability (nuclei count vs DMSO), 5 days (fraction); higher = more cells survive
# [1] = tested on: NCI-H1650
# In short: (§1)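 Lung cancer cell lines, seeded in 1536-well plates, were treated the following day by pin tool with a single drug or with five library-drug doses (not always all listed) in √10 steps on top of a fixed anchor-drug dose. Cells were fixed and nuclei stained in one step after 5 days, and nuclei were counted. Relative viability is the nuclei count for treated wells divided by that for vehicle wells, reported as medians of duplicate plates.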
# [2] = tested on: NCI-H2087
# In short: as §1
# [3] = tested on: NCI-H1651
# In short: as §1
# [4] = tested on: COR-L23
# In short: as §1
# [5] = tested on: COR-L 105
# In short: as §1
# [6] = tested on: HCC-44
# In short: as §1
# [7] = tested on: NCI-H647
# In short: as §1
# [8] = tested on: NCI-H1975
# In short: as §1
# [9] = tested on: EPLC-272H
# In short: as §1
# [10] = tested on: H3255
# In short: as §1
# [11] = tested on: EKVX
# In short: as §1
# [12] = tested on: NCI-H661
# In short: as §1
# [13] = tested on: NCI-H1792
# In short: as §1
# [14] = tested on: HCC-827
# In short: as §1
# [15] = tested on: HCC-15
# In short: as §1
# [16] = tested on: LCLC-103H
# In short: as §1
# [17] = tested on: 201T
# In short: as §1
# [18] = tested on: NCI-H358
# In short: as §1
# [19] = tested on: NCI-H520
# In short: as §1
# [20] = tested on: NCI-H1437
# In short: as §1
# [21] = tested on: UMC-11
# In short: as §1
compound,measurement,setting,value
O=c1[nH]c2ccccc2n1C1CCN(CCCC(c2ccc(F)cc2)c2ccc(F)cc2)CC1 [Pimozide] + Nc1nc2[nH]cc(CCc3ccc(C(=O)N[C@@H](CCC(=O)O)C(=O)O)cc3)c2c(=O)[nH]1 [Pemetrexed] (partner 0.2 µM),relative viability,[1]; first compound 0.08 µM,0.338
same,relative viability,[1]; first compound 0.253 µM,0.341
same,relative viability,[1]; first compound 0.8 µM,0.326
same,relative viability,[1]; first compound 2.53 µM,0.356
same,relative viability,[1]; first compound 8 µM,0.408
same,relative viability,[2]; first compound 0.08 µM,0.655
same,relative viability,[2]; first compound 0.253 µM,0.608
same,relative viability,[2]; first compound 2.53 µM,0.616
same,relative viability,[2]; first compound 8 µM,0.642
same,relative viability,[3]; first compound 0.08 µM,0.603
same,relative viability,[3]; first compound 0.253 µM,0.487
same,relative viability,[3]; first compound 0.8 µM,0.697
same,relative viability,[3]; first compound 2.53 µM,0.562
same,relative viability,[3]; first compound 8 µM,0.566
same,relative viability,[4]; first compound 0.08 µM,0.2
same,relative viability,[4]; first compound 0.253 µM,0.192
same,relative viability,[4]; first compound 0.8 µM,0.19
same,relative viability,[4]; first compound 2.53 µM,0.192
same,relative viability,[4]; first compound 8 µM,0.192
same,relative viability,[5]; first compound 0.08 µM,0.963
same,relative viability,[5]; first compound 0.253 µM,1.11
same,relative viability,[5]; first compound 0.8 µM,1.07
same,relative viability,[5]; first compound 2.53 µM,1.2
same,relative viability,[5]; first compound 8 µM,0.954
same,relative viability,[6]; first compound 0.08 µM,0.67
same,relative viability,[6]; first compound 0.253 µM,0.666
same,relative viability,[6]; first compound 0.8 µM,0.577
same,relative viability,[6]; first compound 2.53 µM,0.618
same,relative viability,[6]; first compound 8 µM,0.577
same,relative viability,[7]; first compound 0.08 µM,0.186
same,relative viability,[7]; first compound 0.253 µM,0.188
same,relative viability,[7]; first compound 0.8 µM,0.175
same,relative viability,[7]; first compound 2.53 µM,0.2
same,relative viability,[7]; first compound 8 µM,0.128
same,relative viability,[8]; first compound 0.08 µM,0.309
same,relative viability,[8]; first compound 0.253 µM,0.261
same,relative viability,[8]; first compound 0.8 µM,0.305
same,relative viability,[8]; first compound 2.53 µM,0.28
same,relative viability,[8]; first compound 8 µM,0.283
same,relative viability,[9]; first compound 0.08 µM,0.319
same,relative viability,[9]; first compound 0.253 µM,0.285
same,relative viability,[9]; first compound 0.8 µM,0.271
same,relative viability,[9]; first compound 2.53 µM,0.179
same,relative viability,[9]; first compound 8 µM,0.238
same,relative viability,[10]; first compound 0.253 µM,0.53
same,relative viability,[10]; first compound 0.8 µM,0.503
same,relative viability,[10]; first compound 2.53 µM,0.519
same,relative viability,[10]; first compound 8 µM,0.578
same,relative viability,[11]; first compound 0.253 µM,0.336
same,relative viability,[11]; first compound 0.8 µM,0.362
same,relative viability,[11]; first compound 2.53 µM,0.397
same,relative viability,[11]; first compound 8 µM,0.412
same,relative viability,[12]; first compound 0.08 µM,0.914
same,relative viability,[12]; first compound 0.253 µM,0.898
same,relative viability,[12]; first compound 0.8 µM,0.844
same,relative viability,[12]; first compound 2.53 µM,0.877
same,relative viability,[12]; first compound 8 µM,0.797
same,relative viability,[13]; first compound 0.08 µM,0.822
same,relative viability,[13]; first compound 0.253 µM,0.786
same,relative viability,[13]; first compound 0.8 µM,0.43
same,relative viability,[13]; first compound 2.53 µM,0.727
same,relative viability,[13]; first compound 8 µM,0.356
same,relative viability,[14]; first compound 0.253 µM,0.228
same,relative viability,[14]; first compound 0.8 µM,0.258
same,relative viability,[14]; first compound 2.53 µM,0.289
same,relative viability,[14]; first compound 8 µM,0.254
same,relative viability,[15]; first compound 0.08 µM,0.229
same,relative viability,[15]; first compound 0.253 µM,0.226
same,relative viability,[15]; first compound 0.8 µM,0.221
same,relative viability,[15]; first compound 2.53 µM,0.213
same,relative viability,[15]; first compound 8 µM,0.205
same,relative viability,[16]; first compound 0.08 µM,0.435
same,relative viability,[16]; first compound 0.253 µM,0.425
same,relative viability,[16]; first compound 0.8 µM,0.471
same,relative viability,[16]; first compound 2.53 µM,0.385
same,relative viability,[16]; first compound 8 µM,0.468
same,relative viability,[17]; first compound 0.08 µM,0.31
same,relative viability,[17]; first compound 0.253 µM,0.334
same,relative viability,[17]; first compound 0.8 µM,0.332
same,relative viability,[17]; first compound 2.53 µM,0.312
same,relative viability,[17]; first compound 8 µM,0.276
same,relative viability,[18]; first compound 0.08 µM,0.171
same,relative viability,[18]; first compound 0.253 µM,0.178
same,relative viability,[18]; first compound 0.8 µM,0.159
same,relative viability,[18]; first compound 2.53 µM,0.172
same,relative viability,[18]; first compound 8 µM,0.147
same,relative viability,[19]; first compound 0.08 µM,0.651
same,relative viability,[19]; first compound 0.253 µM,0.723
same,relative viability,[19]; first compound 0.8 µM,0.739
same,relative viability,[19]; first compound 2.53 µM,0.734
same,relative viability,[19]; first compound 8 µM,0.575
same,relative viability,[20]; first compound 0.08 µM,0.354
same,relative viability,[20]; first compound 0.253 µM,0.306
same,relative viability,[20]; first compound 0.8 µM,0.274
same,relative viability,[20]; first compound 2.53 µM,0.312
same,relative viability,[20]; first compound 8 µM,0.219
same,relative viability,[21]; first compound 0.08 µM,0.82
same,relative viability,[21]; first compound 0.253 µM,0.681
same,relative viability,[21]; first compound 0.8 µM,0.748
same,relative viability,[21]; first compound 2.53 µM,0.772
same,relative viability,[21]; first compound 8 µM,0.725
